# Experimental data: US10745382B2 (BRISTOL-MYERS SQUIBB COMPANY, priority 2015, dated 2020)
# Target: T1, PD-1/PD-L1 (Homo sapiens, UniProt Q9NZQ7)
# T1 construct: made in house; host or cells: HEK293T
# Assay: PD-1/PD-L1 Homogenous Time-Resolved Fluorescence (HTRF) binding assay
# Details: PD-L1-His 10 nM, PD-1-Ig 20 nM; value given as range class; read-out: Range or IC50
# Method in brief: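 dPBS + 0.1% BSA + 0.05% Tween-20 buffer; Eu-cryptate anti-Ig 1 nM final, APC anti-His 20 nM final; HTRF read. Counter-assays: PD-1-Ig/PD-L2-His 20 & 5 nM, CD80-His/PD-L1-Ig 100 & 10 nM.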
# T1 sequence (Q9NZQ7 with tags, fused parts or gaps): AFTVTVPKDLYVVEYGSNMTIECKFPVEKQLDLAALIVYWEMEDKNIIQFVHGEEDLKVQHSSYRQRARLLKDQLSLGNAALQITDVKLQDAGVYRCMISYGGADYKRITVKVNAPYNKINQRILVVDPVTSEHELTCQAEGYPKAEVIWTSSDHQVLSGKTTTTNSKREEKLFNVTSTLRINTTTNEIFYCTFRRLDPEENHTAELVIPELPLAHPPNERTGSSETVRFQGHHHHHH
row,Structure (SMILES),IC50 [µM]
1,"Cc1c(COc2cc(OCc3cncc(C#N)c3)c(CNC3(CO)COC3)cc2Cl)cccc1-c1cccc(OCCCN2CC[C@@H](O)C2)c1Cl [Example 2110, (R)-5-((4-chloro-5-((2′-chloro-3′-(3-(3-hydroxypyrrolidin-1-yl)propoxy)-2-methyl-[1,1′-biphenyl]-3-yl)methoxy)-2-(((3-(hydroxymethyl)oxetan-3-yl)amino)methyl)phenoxy)methyl)nicotinonitrile]",0.00021 to 0.01
2,"COC(=O)[C@H]1CC[C@H](NCCCOc2cccc(-c3cccc(COc4cc(OCc5cncc(C#N)c5)c(CN5CCCC[C@H]5C(=O)O)cc4Cl)c3C)c2C)CC1 [Example 2229, (2S)-1-(5-chloro-2-((5-cyanopyridin-3-yl)methoxy)-4-((3′-(3-((1r,4r)-4-(methoxycarbonyl)cyclohexylamino)propoxy)-2,2′-dimethylbiphenyl-3-yl)methoxy)benzyl)piperidine-2-carboxylic Acid]",0.00021 to 0.01
3,"Cc1c(COc2cc(OCc3cncc(C#N)c3)c(CNC[C@@H](O)CC(=O)O)cc2Cl)cccc1-c1cccc(OCCCN2CC[C@@H](O)C2)c1 [Example 1014, (S)-4-((5-chloro-2-((5-cyanopyridin-3-yl)methoxy)-4-((3′-(3-((R)-3-hydroxypyrrolidin-1-yl)propoxy)-2-methyl-[1,1′-biphenyl]-3-yl)methoxy)benzyl)amino)-3-hydroxybutanoic Acid]",0.00021 to 0.01
4,"Cc1c(COc2cc(OCc3cncc(C#N)c3)c(CN[C@H](CO)C(=O)O)cc2Cl)cccc1-c1cccc(OCCCN2CC(O)C2)c1C [Example 1080, (R)-2-((5-chloro-2-((5-cyanopyridin-3-yl)methoxy)-4-((3′-(3-(3-hydroxyazetidin-1-yl)propoxy)-2,2′-dimethyl-[1,1′-biphenyl]-3-yl)methoxy)benzyl)amino)-3-hydroxypropanoic Acid]",0.00021 to 0.01
5,"Cc1c(COc2cc(OCc3cncc(C#N)c3)c(C(C)N[C@@H](CO)C(=O)O)cc2Cl)cccc1-c1cccc(OCCCN2CC[C@@H](O)C2)c1C (stereo partly drawn) [Example 4141, (1-(5-chloro-2-((5-cyanopyridin-3-yl)methoxy)-4-((3′-(3-((R)-3-hydroxypyrrolidin-1-yl)propoxy)-2,2′-dimethyl-[1,1′-biphenyl]-3-yl)methoxy)phenyl)ethyl)-L-serine]",0.00021 to 0.01
6,"Cc1c(COc2cc(OCc3cncc(C#N)c3)c(CN[C@H](CO)C(=O)O)cc2Cl)cccc1-c1cccc(OCCN2CCOCC2)c1 [Example 1001, (R)-2-((5-chloro-2-((5-cyanopyridin-3-yl)methoxy)-4-((2-methyl-3′-(2-morpholinoethoxy)-[1,1′-biphenyl]-3-yl)methoxy)benzyl)amino)-3-hydroxypropanoic Acid]",0.01 to 0.1
7,"Cc1c(OCCCN2CC[C@@H](O)C2)cccc1-c1c(Cl)ccc(COc2cc(OCc3cncc(C#N)c3)c(CNC(C)(CO)CO)cc2Cl)c1Cl [Example 2093, 5-((4-chloro-5-((2,6-dichloro-3′-(3-((R)-3-hydroxypyrrolidin-1-yl)propoxy)-2′-methyl-[1,1′-biphenyl]-3-yl)methoxy)-2-(((1,3-dihydroxy-2-methylpropan-2-yl)amino)methyl)phenoxy)methyl)nicotinonitrile]",0.00021 to 0.01
8,"Cc1c(COc2cc(OCc3cncc(S(C)(=O)=O)c3)c(CN[C@](C)(CO)C(=O)O)cc2Cl)cccc1-c1cccc(OCCCN2CCC(CO)(C(=O)O)C2)c1C (stereo partly drawn) [Example 1048, 1-(3-((3′-((4-((((R)-2-carboxy-1-hydroxypropan-2-yl)amino)methyl)-2-chloro-5-((5-(methylsulfonyl)pyridin-3-yl)methoxy)phenoxy)methyl)-2,2′-dimethyl-[1,1′-biphenyl]-3-yl)oxy)propyl)-3-(hydroxymethyl)pyrrolidine-3-carboxylic Acid]",0.00021 to 0.01
9,"CCOC(=O)C1(O)CCN(CCCOc2cccc(-c3cccc(COc4cc(OCc5cncc(C#N)c5)c(CN[C@@H](CO)C(=O)O)cc4Cl)c3C)c2Cl)CC1 [Example 1095, (5-chloro-4-((2′-chloro-3′-(3-(4-(ethoxycarbonyl)-4-hydroxypiperidin-1-yl)propoxy)-2-methyl-[1,1′-biphenyl]-3-yl)methoxy)-2-((5-cyanopyridin-3-yl)methoxy)benzyl)-L-serine]",0.00021 to 0.01
10,"Cc1c(COc2cc(OCc3cncc(C(N)=O)c3)c(CN3CCCC[C@H]3C(=O)O)cc2Cl)cccc1-c1cccc(OCCCN2CCC(CO)(C(=O)O)CC2)c1Cl [Example 1114, (S)-1-(2-((5-carbamoylpyridin-3-yl)methoxy)-4-((3′-(3-(4-carboxy-4-(hydroxymethyl)piperidin-1-yl)propoxy)-2′-chloro-2-methyl-[1,1′-biphenyl]-3-yl)methoxy)-5-chlorobenzyl)piperidine-2-carboxylic Acid]",0.00021 to 0.01
11,"Cc1c(COc2cc(OCc3cncc(C#N)c3)c(CN(CCO)CCCO)cc2Cl)cccc1-c1cccc(CN(C)CCN2CCS(=O)(=O)CC2)c1C [Example 4085, 5-((4-chloro-5-((3′-(((2-(1,1-dioxidothiomorpholino)ethyl)(methyl)amino)methyl)-2,2′-dimethyl-[1,1′-biphenyl]-3-yl)methoxy)-2-(((2-hydroxyethyl)(3-hydroxypropyl)amino)methyl)phenoxy)methyl)nicotinonitrile]",0.01 to 0.1
12,"Cc1c(CCCCN2CC[C@@H](O)C2)cccc1-c1cccc(COc2cc(OCc3cncc(C#N)c3)c(CN3CCCC[C@H]3C(=O)O)cc2Cl)c1C [Example 4061, (S)-1-(5-chloro-2-((5-cyanopyridin-3-yl)methoxy)-4-((3′-(4-((R)-3-hydroxypyrrolidin-1-yl)butyl)-2,2′-dimethyl-[1,1′-biphenyl]-3-yl)methoxy)benzyl)piperidine-2-carboxylic Acid]",0.00021 to 0.01
13,"Cc1c(COc2cc(OCc3cncc(C#N)c3)c(CN(C)[C@@H](C)C(=O)O)cc2Cl)cccc1-c1cccc(OCCCN2CC[C@@H](O)C2)c1C [Example 4132, N-(5-chloro-2-((5-cyanopyridin-3-yl)methoxy)-4-((3′-(3 ((R)-3-hydroxypyrrolidin-1-yl)propoxy)-2,2′-dimethyl-[1,1′-biphenyl]-3-yl)methoxy)benzyl)-N-methyl-L-alanine]",0.00021 to 0.01
14,"Cc1c(COc2cc(OCc3cncc(C#N)c3)c(C(=O)N3CCCC[C@H]3C(=O)O)cc2Cl)cccc1-c1cccc(OCCCN2CC[C@@H](O)C2)c1C [Example 2380, (S)-1-(5-chloro-2-((5-cyanopyridin-3-yl)methoxy)-4-((3′-(3-((R)-3-hydroxypyrrolidin-1-yl)propoxy)-2,2′-dimethyl-[1,1′-biphenyl]-3-yl)methoxy)benzoyl)piperidine-2-carboxylic Acid]",0.01 to 0.1
15,"Cc1c(COc2cc(OCc3cncc(C#N)c3)c(CN3CCCC[C@H]3C(=O)O)cc2Cl)cccc1-c1cccc(OCCCN2CCC[C@@H](O)C2)c1C [Example 2223, (2S)-1-(5-chloro-2-((5-cyanopyridin-3-yl)methoxy)-4-((3′-(3-((R)-3-hydroxypiperidin-1-yl)propoxy)-2,2′-dimethylbiphenyl-3-yl)methoxy)benzyl)piperidine-2-carboxylic Acid]",0.00021 to 0.01
16,"Cc1c(COc2cc(OCc3cncc(C#N)c3)c(CN[C@H](C(=O)O)C(C)C)cc2Cl)cccc1-c1cccc(OCCCN2CC[C@@H](O)C2)c1C [Example 4150, (5-chloro-2-((5-cyanopyridin-3-yl)methoxy)-4-((3′-(3-((R)-3-hydroxypyrrolidin-1-yl)propoxy)-2,2′-dimethyl-[1,1′-biphenyl]-3-yl)methoxy)benzyl)-L-valine]",0.00021 to 0.01
17,"CNC(=O)c1cccc(-c2cccc(COc3cc(OCc4cc(F)cc(F)c4)c(CN4CCOC[C@H]4C(=O)O)cc3Cl)c2C)c1C [Example 4027, (S)-4-(5-chloro-2-((3,5-difluorobenzyl)oxy)-4-((2,2′-dimethyl-3′-(methylcarbamoyl)-[1,1′-biphenyl]-3-yl)methoxy)benzyl)morpholine-3-carboxylic Acid]",2.01 to 10
18,"Cc1c(COc2cc(OCc3cncc(C#N)c3)c(CN3C[C@H](O)C[C@H]3C(=O)O)cc2Cl)cccc1-c1cccc(C(=O)N2CCOCC2)c1C [Example 4050, (2S,4R)-1-(5-chloro-2-((5-cyanopyridin-3-yl)methoxy)-4-((2,2′-dimethyl-3′-(morpholine-4-carbonyl)-[1,1′-biphenyl]-3-yl)methoxy)benzyl)-4-hydroxypyrrolidine-2-carboxylic Acid]",0.1 to 2
19,"Cc1c(COc2cc(OCc3cncc(C#N)c3)c(CNC(CO)CO)cc2Cl)cccc1-c1cccc(OCCCN2CCCCC2)c1Cl [Example 2051, 5-((4-chloro-5-((2′-chloro-2-methyl-3′-(3-(piperidin-1-yl)propoxy)-[1,1′-biphenyl]-3-yl)methoxy)-2-(((1,3-dihydroxypropan-2-yl)amino)methyl)phenoxy)methyl)nicotinonitrile]",0.00021 to 0.01
20,"Cc1c(COc2cc(OCc3cncc(C(=N)N4CCCC(CO)C4)c3)c(CNC(C)(CO)CO)cc2Cl)cccc1-c1cccc(OCCCN2CCCC(CO)C2)c1Cl (stereo not shown) [Example 2099, 2-((5-chloro-4-((2′-chloro-3′-(3-(3-(hydroxymethyl)piperidin-1-yl)propoxy)-2-methyl-[1,1′-biphenyl]-3-yl)methoxy)-2-((5-((3-(hydroxymethyl)piperidin-1-yl)(imino)methyl)pyridin-3-yl)methoxy)benzyl)amino)-2-methylpropane-1,3-diol]",0.00021 to 0.01
21,"Cc1c(COc2cc(OCc3cncc(C(=N)N4CC[C@@H](O)C4)c3)c(CNC(C)(CO)CO)cc2Cl)cccc1-c1cccc(OCCCN2CC[C@@H](O)C2)c1Cl [Example 2105, 2-((5-chloro-4-((2′-chloro-3′-(3-((R)-3-hydroxypyrrolidin-1-yl)propoxy)-2-methyl-[1,1′-biphenyl]-3-yl)methoxy)-2-((5-(((R)-3-hydroxypyrrolidin-1-yl)(imino)methyl)pyridin-3-yl)methoxy)benzyl)amino)-2-methylpropane-1,3-diol]",0.00021 to 0.01
22,"Cc1c(COc2cc(OCc3cncc(C#N)c3)c(CN3CCCC[C@H]3C(=O)O)cc2Cl)cccc1-c1ccc2c(c1)OC(CCN1CC[C@@H](O)C1)CO2 (single isomer, unassigned) [Example 1505]",0.00021 to 0.01
